Where two headings read alike, the source gives them in different places.
Columns and labels:
HT-29 cells = test: Quantification of cell-associated compound by HPLC, HT-29; type: cell-based, human; conditions: 30 μM, 10 minutes; for amount of cell-associated compound: mean ± SEM
Procedure: (§1) Accumulation of bendamustine and selected bendamustine esters by HT-29 and NCI-H460 cells was determined by HPLC. For this purpose, 1.5 · 10^6 cells/well were seeded into 6-well plates (Sarstedt, Nümbrecht, Germany). After two days of cultivation, the cells were incubated in PBS containing 30 μM of 1, 2, 4 or 5 and 200 μM of umbelliferone as internal standard at 37°C for 10 minutes. After removing the medium, the cells were washed three times with PBS. Untreated cells were detached with trypsin/EDTA and counted. The treated cells were harvested by adding 200 μL of ice-cold perchloric acid (1 M) and scraping. Subsequently, the samples were vortexed and sonicated (Branson 3200 ultrasonic cleaner; Branson, Danbury, USA) for 10 minutes. After 5 minutes of centrifugation (13000 g, 4°C), the supernatants were filtered (0.2 μm Phenex; Phenomenex, Aschaffenburg, Germany) and directly analyzed by HPLC with fluorescence detection according to a recently reported validated procedure. The normalization of the measured concentration to the cell count allowed for a calculation of the cell-associated amount of the respective test compound. Additionally, the ratio of cell-associated substance compared to the applied concentration (30 μM) was calculated based on an average cell volume of 3 pL.

NCI-H460 cells = test: Quantification of cell-associated compound by HPLC, NCI-H460; type: cell-based, human; conditions: 30 μM, 10 minutes, mean ± SEM
Procedure: as §1

myeloma cells = system: myeloma cells; design: method as in PMID 17653574, PMID 23380051; conditions: cited from earlier work
Jurkat cells = system: Jurkat cells; design: method as in Hiraoka et al. 50; conditions: ref Hiraoka et al. 50; cited from earlier work
[1] = system: p53 in various tumor cell types; design: method as in PMID 17653574; conditions: cited from earlier work
[2] = plasma, intravenous administration, cited from earlier work
[3] = system: HaCaT cells (spontaneously immortalized human keratinocytes); test: Kinetic toxicity assay (crystal violet) on HaCaT cells; type: cell-based; conditions: kinetic assay, 0.1, 1 and 10 μM, 5 days
Procedure: Depending on the characteristics of the cells, two different assays were performed. For adherently growing cells (HaCaT, HT-29, NCI-H460, SK-MEL-3, MG-63, Capan-1), cytotoxic and cytocidal effects were determined in the crystal violet assay, whereas for loosely adherent cells (LNCaP, SK-ES-1) and cells growing in suspension (HEL 92.1.7, Jurkat, U-937) the MTT-assay was used with minor modifications. In brief, 1.5 · 10^3 (HaCaT, HT-29, NCI-H460, SK-MEL-3, MG-63, Capan-1) or 5 · 10^3 (Jurkat, U-937, HEL92.1.7, LNCaP, SK-ES-1) cells per well were seeded into flat-bottom 96-well plates (Sarstedt, Nümbrecht, Germany). […] In case of the vehicle control and test compounds, the final DMSO concentration amounted to 0.1%. Absorbance was measured at 580 nm in a 96-well plate reader (GENios pro microplate reader, Tecan, Salzburg, Austria). Effects were quantified as previously described for both assays.

OCT1 = target: T1, OCT1 (Homo sapiens, UniProt O15245); test: Confocal laser scanning microscopy of ASP+ uptake, HEK-OCT1; type: cell-based; conditions: compound 5 15 μM; TPA 200 μM; ASP+ 1 μM
T1 construct: containing the full length SLC22A1 cDNA (NM_003057) encoding the human OCT1 protein; expressed in transfected cells
T1 sequence (O15245 1-554): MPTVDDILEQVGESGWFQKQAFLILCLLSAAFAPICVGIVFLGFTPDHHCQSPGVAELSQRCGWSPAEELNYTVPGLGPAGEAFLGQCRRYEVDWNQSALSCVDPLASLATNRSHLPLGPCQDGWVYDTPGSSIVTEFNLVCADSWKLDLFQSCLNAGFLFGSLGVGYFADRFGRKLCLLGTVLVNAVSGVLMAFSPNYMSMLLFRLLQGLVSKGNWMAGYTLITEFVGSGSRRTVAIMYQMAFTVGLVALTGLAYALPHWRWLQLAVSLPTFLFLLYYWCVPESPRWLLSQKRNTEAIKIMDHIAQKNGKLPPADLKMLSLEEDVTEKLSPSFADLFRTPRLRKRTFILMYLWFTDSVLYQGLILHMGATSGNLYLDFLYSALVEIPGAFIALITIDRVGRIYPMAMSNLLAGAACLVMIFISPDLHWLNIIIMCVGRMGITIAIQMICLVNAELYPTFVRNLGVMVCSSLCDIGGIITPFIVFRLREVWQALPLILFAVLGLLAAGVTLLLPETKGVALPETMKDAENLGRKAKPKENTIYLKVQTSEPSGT
Procedure: (§2) HEK-Co, HEK-OCT1 and HEK-OCT3 cells were seeded into 8-well μ-Slides (Ibidi, Munich, Germany) (2 · 10^4 cells/well) and allowed to attach for 48 hours. Prior to the staining procedure, the medium was replaced by PBS and the DNA probe Draq5 (5 μM) (Biostatus, Shepshed, UK) was added to each well. […] Subsequently, ASP^+ was added to reach a concentration of 1 μM, and the cells were incubated for 5 minutes in the dark. Imaging was performed with an Axiovert 200 M confocal microscope coupled to a Zeiss LSM 510 scanning device (Carl Zeiss, Oberkochen, Germany) using a Plan-Apochromat 63x/1.40 oil immersion objective. Draq5 was excited at 633 nm and fluorescence was detected using a 650 nm long-pass filter, ASP^+ was excited at 488 nm and detected using a 565/35 nm band-pass filter.

OCT3 = target: T2, OCT3 (Homo sapiens, UniProt O75751); test: Confocal laser scanning microscopy of ASP+ uptake, HEK-OCT3; type: cell-based; conditions: compound 5 15 μM; TPA 200 μM; ASP+ 1 μM
T2 construct: expressed in transfected cells; host or cells: HEK293 (HEK-OCT3)
T2 sequence (O75751 1-556): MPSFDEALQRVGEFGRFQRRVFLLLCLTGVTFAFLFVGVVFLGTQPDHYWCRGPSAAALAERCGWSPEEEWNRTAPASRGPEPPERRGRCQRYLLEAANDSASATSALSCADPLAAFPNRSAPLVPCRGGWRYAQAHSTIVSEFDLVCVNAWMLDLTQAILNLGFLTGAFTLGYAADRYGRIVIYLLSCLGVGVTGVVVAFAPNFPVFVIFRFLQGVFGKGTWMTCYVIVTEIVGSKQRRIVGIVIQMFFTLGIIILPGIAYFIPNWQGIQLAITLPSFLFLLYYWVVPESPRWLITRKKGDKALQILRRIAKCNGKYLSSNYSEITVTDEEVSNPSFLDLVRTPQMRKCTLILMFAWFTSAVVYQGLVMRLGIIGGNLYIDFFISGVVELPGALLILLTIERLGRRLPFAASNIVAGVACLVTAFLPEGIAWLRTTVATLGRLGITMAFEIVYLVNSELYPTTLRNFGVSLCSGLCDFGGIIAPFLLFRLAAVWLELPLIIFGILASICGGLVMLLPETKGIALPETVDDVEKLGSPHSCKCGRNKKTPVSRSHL
Procedure: as §2

Structure (SMILES): Cn1c(CCCC(=O)O)nc2cc(N(CCCl)CCCl)ccc21 [Compound 1, bendamustine, reference compound]
- amount of cell-associated compound (HT-29 cells): 0.07 ± 0.011 nmol/10^6 cells
- amount of cell-associated compound (NCI-H460 cells): 0.03 ± 0.001 nmol/10^6 cells
- IC50 (myeloma cells): ~100 µM
- IC50 (Jurkat cells): ~50 µM
- concentration required for significant induction of p53 expression [1]: ≥ 80 µM
- Cmax ([2]; converted, ref 51): ~17 µM
- Cmax ([2]; converted, ref 52): ~31 µM
- Cmax ([2]; ref 51): 6000 ng/mL
- Cmax ([2]; ref 52): 11000 ng/mL

Structure (SMILES): COC(=O)CCCc1nc2cc(N(CCCl)CCCl)ccc2n1C [Compound 2]
- amount of cell-associated compound (HT-29 cells): 2.05 ± 0.39 nmol/10^6 cells
- amount of cell-associated compound (NCI-H460 cells): 0.28 ± 0.06 nmol/10^6 cells

Structure (SMILES): Cn1c(CCCC(=O)OCCN2CCOCC2)nc2cc(N(CCCl)CCCl)ccc21 [Compound 4]
- toxicity on HaCaT cells compared to tumor cells [3]: preferential toxicity against tumor cells
- amount of cell-associated compound (HT-29 cells): 1.59 ± 0.23 nmol/10^6 cells
- amount of cell-associated compound (NCI-H460 cells): 0.59 ± 0.04 nmol/10^6 cells

Structure (SMILES): Cn1c(CCCC(=O)OCCN2CCCC2)nc2cc(N(CCCl)CCCl)ccc21 [Compound 5]
- toxicity on HaCaT cells compared to tumor cells [3]: preferential toxicity against tumor cells
- cellular enrichment relative to bendamustine (HT-29 cells): approximately 70 fold
- amount of cell-associated compound (HT-29 cells): 5.01 ± 0.34 nmol/10^6 cells
- amount of cell-associated compound (NCI-H460 cells): 1.89 ± 0.14 nmol/10^6 cells
- effect on OCT1 activity (ASP+ uptake, imaging) (OCT1): inhibited
- effect on OCT3 activity (ASP+ uptake, imaging) (OCT3): inhibited

Source: article PMC4721923 (PLoS ONE, 2015)
